Reference: ChEMBL document CHEMBL5728597, “Tetrahydroquinoline derivatives as P2X7 receptor antagonists” (2021)

Biological target: T1, P2X purinoceptor 7 (Homo sapiens, UniProt Q99572)
T1 sequence (Q99572 whole entry): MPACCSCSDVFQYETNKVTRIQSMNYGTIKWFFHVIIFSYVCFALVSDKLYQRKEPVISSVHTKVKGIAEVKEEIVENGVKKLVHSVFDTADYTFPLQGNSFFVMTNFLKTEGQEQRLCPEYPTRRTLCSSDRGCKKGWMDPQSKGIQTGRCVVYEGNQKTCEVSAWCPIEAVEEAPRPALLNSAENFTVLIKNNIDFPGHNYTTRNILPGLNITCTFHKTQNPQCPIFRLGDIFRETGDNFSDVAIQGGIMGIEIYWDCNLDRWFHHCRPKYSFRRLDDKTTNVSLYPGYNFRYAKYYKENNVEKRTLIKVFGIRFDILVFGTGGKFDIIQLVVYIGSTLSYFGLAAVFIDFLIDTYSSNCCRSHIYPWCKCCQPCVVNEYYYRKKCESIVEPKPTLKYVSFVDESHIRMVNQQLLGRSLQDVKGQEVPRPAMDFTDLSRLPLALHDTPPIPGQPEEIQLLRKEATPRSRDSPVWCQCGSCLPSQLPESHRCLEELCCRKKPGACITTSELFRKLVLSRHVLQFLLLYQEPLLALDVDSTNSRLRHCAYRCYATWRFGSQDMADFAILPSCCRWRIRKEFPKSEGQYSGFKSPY
Experiment: Pharmacological Assay: 1. […] Incubate the plate at 37° C. in 5% CO2 for 1 h.4. […] Test compounds were prepared at 100× the test concentration in DMSO by serial dilution with Biomek-FX liquid handling instrument. 33× diluted compound solutions in assay buffer were prepared in intermediate compound plate with Biomek-NX liquid handling instrument. A further 3× dilution occurred in below steps 6 and 7.6. Add 20 microL of 33× diluted compound solutions into each well and leave the plate for 10 min under the dark at room temperature.7. Measure activity by FDSS as follows:Set the assay plate on the stacker of FDSS.Start the detection of fluorescence intensity at 540 nm by 480 nm exicitation.After 30 seconds, add 20 microL of assay buffer containing 240 microM BzATP (final concentration 80 microM).

Work on `NC(=O)CC1CCC(C(=O)NCc2cccc(C(F)(F)F)c2Cl)c2cccnc21` (configuration not stated) yielded an IC50 of less than 50 nM.
`O=C(NCc1ccc(C(F)(F)F)cc1Cl)[C@]1(F)CC[C@H](O)c2ncccc21` showed an IC50 of less than 50 nM.
